Results reported in PubChem BioAssay AID2060503 (Molecular Pharmacology Branch, DTP, NCI, 2025).

System: 817829-284-R-J1-PDC complex spheroids, viability
Experiment: Anticancer human tumor 817829-284-R-J1-PDC patient-derived colon adenocarcinoma cell line growth inhibition [GQUAD]
Settings: for IC50: curve of first compound; for viability, T/C: stronger effect = lower value
Method in brief: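 Viability of tumor cells grown as complex spheroids with endothelial and stromal cells, exposed to drug combinations. Top concentration at or near clinical Cmax (else 10 microM), diluted in half-log increments.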

[1] = second compound 0.0316 µM, first compound 0.0316 µM
[2] = second compound 0.0316 µM, first compound 0.1 µM
[3] = second compound 0.0316 µM, first compound 0.316 µM
[4] = second compound 0.0316 µM, first compound 1 µM
[5] = second compound 0.0316 µM, first compound 3.16 µM
[6] = second compound 0.0316 µM, first compound 10 µM
[7] = second compound 0.1 µM, first compound 0.0316 µM
[8] = second compound 0.1 µM, first compound 0.1 µM
[9] = second compound 0.1 µM, first compound 0.316 µM
[10] = second compound 0.1 µM, first compound 1 µM
[11] = second compound 0.1 µM, first compound 3.16 µM
[12] = second compound 0.1 µM, first compound 10 µM
[13] = second compound 0.316 µM, first compound 0.0316 µM
[14] = second compound 0.316 µM, first compound 0.1 µM
[15] = second compound 0.316 µM, first compound 0.316 µM
[16] = second compound 0.316 µM, first compound 1 µM
[17] = second compound 0.316 µM, first compound 3.16 µM
[18] = second compound 0.316 µM, first compound 10 µM
[19] = second compound 1 µM, first compound 0.0316 µM
[20] = second compound 1 µM, first compound 0.1 µM
[21] = second compound 1 µM, first compound 0.316 µM
[22] = second compound 1 µM, first compound 1 µM
[23] = second compound 1 µM, first compound 3.16 µM
[24] = second compound 1 µM, first compound 10 µM
[25] = second compound 3.16 µM, first compound 0.0316 µM
[26] = second compound 3.16 µM, first compound 0.1 µM
[27] = second compound 3.16 µM, first compound 0.316 µM
[28] = second compound 3.16 µM, first compound 1 µM
[29] = second compound 3.16 µM, first compound 3.16 µM
[30] = second compound 3.16 µM, first compound 10 µM
[31] = second compound 10 µM, first compound 0.0316 µM
[32] = second compound 10 µM, first compound 0.1 µM
[33] = second compound 10 µM, first compound 0.316 µM
[34] = second compound 10 µM, first compound 1 µM
[35] = second compound 10 µM, first compound 3.16 µM
[36] = second compound 10 µM, first compound 10 µM
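Further: spheroids exposed to agents for 7 days before readout.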
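Wherever viability, T/C is given: percent viability relative to DMSO vehicle control taken as 100%.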

Question: Which IC50 (second compound 0.0316 µM) does the source give for C=CCn1c(=O)c2cnc(Nc3ccc(N4CCN(C)CC4)cc3)nc2n1-c1cccc(C(C)(C)O)n1 + CN(C)c1ccc(Nc2c3ccc(NC(=O)CCN4CCCC4)cc3nc3cc(NC(=O)CCN4CCCC4)ccc23)cc1 here?
Answer: 240 nM

Question: What about the IC50 (second compound 0.1 µM) of the same compound?
Answer: 220 nM

Question: And the IC50 (second compound 0.316 µM)?
Answer: 263 nM

Question: And the IC50 (second compound 1 µM)?
Answer: 231 nM

Question: What about the IC50 (second compound 3.16 µM) of the same compound?
Answer: 214 nM

Question: And the IC50 (second compound 10 µM)?
Answer: 190 nM

Question: What about the viability, T/C [1] of the same compound?
Answer: 99.2%

Question: What about the viability, T/C [2] of the same compound?
Answer: 106%

Question: And the viability, T/C [3]?
Answer: 33.4%

Question: What about the viability, T/C [4] of the same compound?
Answer: 9.73%

Question: And the viability, T/C [5]?
Answer: 6.22%

Question: And the viability, T/C [6]?
Answer: 6.74%

Question: What about the viability, T/C [7] of the same compound?
Answer: 88.5%

Question: And the viability, T/C [8]?
Answer: 101%

Question: What about the viability, T/C [9] of the same compound?
Answer: 29.5%

Question: And the viability, T/C [10]?
Answer: 9.11%

Question: What about the viability, T/C [11] of the same compound?
Answer: 7.3%

Question: And the viability, T/C [12]?
Answer: 5.57%

Question: And the viability, T/C [13]?
Answer: 102%

Question: What about the viability, T/C [14] of the same compound?
Answer: 109%

Question: And the viability, T/C [15]?
Answer: 39.2%

Question: What about the viability, T/C [16] of the same compound?
Answer: 9.34%

Question: And the viability, T/C [17]?
Answer: 7.03%

Question: And the viability, T/C [18]?
Answer: 5.88%

Question: And the viability, T/C [19]?
Answer: 99.8%

Question: And the viability, T/C [20]?
Answer: 102%

Question: And the viability, T/C [21]?
Answer: 30.9%

Question: And the viability, T/C [22]?
Answer: 9.37%

Question: What about the viability, T/C [23] of the same compound?
Answer: 6.93%

Question: And the viability, T/C [24]?
Answer: 6.42%

Question: What about the viability, T/C [25] of the same compound?
Answer: 89.3%

Question: And the viability, T/C [26]?
Answer: 102%

Question: What about the viability, T/C [27] of the same compound?
Answer: 26.4%

Question: What about the viability, T/C [28] of the same compound?
Answer: 10.9%

Question: What about the viability, T/C [29] of the same compound?
Answer: 7.22%

Question: And the viability, T/C [30]?
Answer: 5.95%

Question: And the viability, T/C [31]?
Answer: 104%

Question: And the viability, T/C [32]?
Answer: 82.4%

Question: And the viability, T/C [33]?
Answer: 24%

Question: What about the viability, T/C [34] of the same compound?
Answer: 11.2%

Question: What about the viability, T/C [35] of the same compound?
Answer: 7.11%

Question: What about the viability, T/C [36] of the same compound?
Answer: 2.4%

Question: What does the source list for Cc1[nH]c2ccccc2c1CCNCc1ccc(/C=C/C(=O)NO)cc1 + CN(C)c1ccc(Nc2c3ccc(NC(=O)CCN4CCCC4)cc3nc3cc(NC(=O)CCN4CCCC4)ccc23)cc1?
Answer: IC50 (second compound 0.0316 µM): 52.1 nM; IC50 (second compound 0.1 µM): 45.7 nM; IC50 (second compound 0.316 µM): 47.1 nM; IC50 (second compound 1 µM): 53.3 nM; IC50 (second compound 3.16 µM): 47.7 nM; IC50 (second compound 10 µM): 19.1 nM; viability, T/C (second compound 0.0316 µM, first compound 0.000999 µM): 108%; viability, T/C (second compound 0.0316 µM, first compound 0.00316 µM): 99.3%; viability, T/C (second compound 0.0316 µM, first compound 0.00999 µM): 126%; viability, T/C [1]: 86.1%; viability, T/C (second compound 0.0316 µM, first compound 0.0999 µM): 3.89%; viability, T/C [3]: 0.19%; viability, T/C (second compound 0.1 µM, first compound 0.000999 µM): 89.8%; viability, T/C (second compound 0.1 µM, first compound 0.00316 µM): 110%; viability, T/C (second compound 0.1 µM, first compound 0.00999 µM): 109%; viability, T/C [7]: 72.3%; viability, T/C (second compound 0.1 µM, first compound 0.0999 µM): 3.79%; viability, T/C [9]: 0.12%; viability, T/C (second compound 0.316 µM, first compound 0.000999 µM): 94.1%; viability, T/C (second compound 0.316 µM, first compound 0.00316 µM): 115%; viability, T/C (second compound 0.316 µM, first compound 0.00999 µM): 117%; viability, T/C [13]: 75.3%; viability, T/C (second compound 0.316 µM, first compound 0.0999 µM): 3.89%; viability, T/C [15]: 0.11%; viability, T/C (second compound 1 µM, first compound 0.000999 µM): 104%; viability, T/C (second compound 1 µM, first compound 0.00316 µM): 100%; viability, T/C (second compound 1 µM, first compound 0.00999 µM): 126%; viability, T/C [19]: 88.4%; viability, T/C (second compound 1 µM, first compound 0.0999 µM): 4.37%; viability, T/C [21]: 0.14%; viability, T/C (second compound 3.16 µM, first compound 0.000999 µM): 96.1%; viability, T/C (second compound 3.16 µM, first compound 0.00316 µM): 99.2%; viability, T/C (second compound 3.16 µM, first compound 0.00999 µM): 119%; viability, T/C [25]: 76.1%; viability, T/C (second compound 3.16 µM, first compound 0.0999 µM): 5.12%; viability, T/C [27]: 0.15%; viability, T/C (second compound 10 µM, first compound 0.000999 µM): 99.2%; viability, T/C (second compound 10 µM, first compound 0.00316 µM): 113%; viability, T/C (second compound 10 µM, first compound 0.00999 µM): 78.6%; viability, T/C [31]: 27.2%; viability, T/C (second compound 10 µM, first compound 0.0999 µM): 1.95%; viability, T/C [33]: 0.22%

Question: Which IC50 (second compound 0.0316 µM) does the source give for O=C(NO)c1cnc(N2CCN(S(=O)(=O)c3ccc4ccccc4c3)CC2)nc1 + CN(C)c1ccc(Nc2c3ccc(NC(=O)CCN4CCCC4)cc3nc3cc(NC(=O)CCN4CCCC4)ccc23)cc1 here?
Answer: 174 nM

Question: And the IC50 (second compound 0.1 µM)?
Answer: 184 nM

Question: What about the IC50 (second compound 0.316 µM) of the same compound?
Answer: 189 nM

Question: And the IC50 (second compound 1 µM)?
Answer: 182 nM

Question: And the IC50 (second compound 3.16 µM)?
Answer: 170 nM

Question: What about the IC50 (second compound 10 µM) of the same compound?
Answer: 82.8 nM

Question: And the viability, T/C [1]?
Answer: 107%

Question: And the viability, T/C [2]?
Answer: 91.7%

Question: And the viability, T/C [3]?
Answer: 5.47%

Question: And the viability, T/C [4]?
Answer: 0.25%

Question: And the viability, T/C [5]?
Answer: 0.18%

Question: And the viability, T/C [6]?
Answer: 0.2%

Question: And the viability, T/C [7]?
Answer: 116%

Question: And the viability, T/C [8]?
Answer: 101%

Question: What about the viability, T/C [9] of the same compound?
Answer: 4.32%

Question: What about the viability, T/C [10] of the same compound?
Answer: 0.23%

Question: And the viability, T/C [11]?
Answer: 0.12%

Question: What about the viability, T/C [12] of the same compound?
Answer: 0.17%

Question: What about the viability, T/C [13] of the same compound?
Answer: 98.8%

Question: What about the viability, T/C [14] of the same compound?
Answer: 111%

Question: And the viability, T/C [15]?
Answer: 5.37%

Question: And the viability, T/C [16]?
Answer: 0.23%

Question: And the viability, T/C [17]?
Answer: 0.11%

Question: What about the viability, T/C [18] of the same compound?
Answer: 0.15%

Question: What about the viability, T/C [19] of the same compound?
Answer: 103%

Question: What about the viability, T/C [20] of the same compound?
Answer: 99.4%

Question: And the viability, T/C [21]?
Answer: 4.41%

Question: And the viability, T/C [22]?
Answer: 0.21%

Question: And the viability, T/C [23]?
Answer: 0.1%

Question: And the viability, T/C [24]?
Answer: 0.13%

Question: And the viability, T/C [25]?
Answer: 110%

Question: What about the viability, T/C [26] of the same compound?
Answer: 89.4%

Question: And the viability, T/C [27]?
Answer: 4.33%

Question: What about the viability, T/C [28] of the same compound?
Answer: 0.21%

Question: And the viability, T/C [29]?
Answer: 0.12%

Question: What about the viability, T/C [30] of the same compound?
Answer: 0.15%

Question: What about the viability, T/C [31] of the same compound?
Answer: 102%

Question: What about the viability, T/C [32] of the same compound?
Answer: 39.8%

Question: And the viability, T/C [33]?
Answer: 2.02%

Question: What about the viability, T/C [34] of the same compound?
Answer: 0.23%

Question: What about the viability, T/C [35] of the same compound?
Answer: 0.19%

Question: What about the viability, T/C [36] of the same compound?
Answer: 0.19%
